Test results as given in patent US20120264231A1, “ASSAY FOR ORAI CALCIUM CHANNEL REGULATORS” (IMMUNE DISEASE INSTITUTE, INC., priority 2009, published 2012).
Where two headings read alike, the source gives them in different places.

Tests used:
STIM1−/− T cells = test: Single-cell [Ca2+]i measurement in STIM1−/− T cells expressing STIM1 fragments; assay type: cell-based, murine
Excerpt: To determine the competence of STIM 1 fragments to activate ORAI1 in mammalian cells, Myc-tagged STIM 1^CT and its truncated variants were introduced by retroviral expression into STIM1−/− T cells, and their ability to elevate resting Ca^2+ permeability was examined in cells loaded with Fura-2. As in human Jurkat T cells (Huang, G. N., et al., (2006); supra), expression of the soluble cytoplasmic portion of STIM 1 activated Ca^2+ influx into STIM1−/− murine T cells (FIG. 11). Elevated Ca^2+ permeability was evident in a marked increase in cytoplasmic [Ca^2+] on changing to medium containing 2 mM Ca^2+ after brief exposure to nominally Ca^2+-free medium. […] Retroviral vector alone conferred no constitutive influx above the level in control cells, as previously shown (Oh-hora, M., et al., (2008), supra).
Retroviral expression plasmids encoding mouse STIM 1 and its cytoplasmic fragments (residues 233-685, 233-600, 233-498, or 233-463) were constructed by inserting the corresponding coding sequences between the XhoI and EcoRI sites of the vector pMSCV-CITE-eGFP-PGK-Puro (Clontech), which allows for coexpression of the inserted gene, GFP, and a puromycin resistance gene. GFP expression was used to estimate transducing efficiency.
Primary CD4^+ cells were purified from spleen and lymph nodes of Stim1^f1/f1 CD4-Cre^+ mice using Dynal magnetic beads (Invitrogen) following the manufacturer's instructions. Purified T cells were stimulated with anti-CD3 and anti-CD28, transduced with retroviruses obtained from transfected Phoenix packaging cells, and further expanded in IL-2-containing medium as described (Oh-hora, M., et al., Nat Immunol 9, 432-443 (2008); Ansel, K. M., et al., Nat Immunol 5, 1251-1259 (2004)). The transduction efficiency (>80%) was estimated by evaluating GFP expression using flow cytometry.
Retrovirus-transduced CD4^+ cells isolated from Stim1^f1/f1 CD4-Cre^+ mice were incubated overnight in IL-2 free RPMI medium and loaded with 2 μM Fura-2-acetoxylmethyl ester (Invitrogen) for 45 min at ambient temperature in the dark. T cells were further attached to coverslips precoated with 0.01% poly-L-lysine, mounted to a RC-20 closed-bath flow chamber (Warner Instrument), and bathed in Ringer's solution (155 mM NaCl, 4.5 mM KCl, 2 mM CaCl2, 1 mM MgCl2, 10 mM D-glucose and 5 mM HEPES, pH 7.4). For nominally Ca^2+-free Ringer's solution CaCl2 was replaced with MgCl2. After 5 minutes of equilibration in Ringer's solution, [Ca^2+]i measurement commenced with ˜3 min perfusion of T cells with Ca^2+-free Ringer's solution at ambient temperature, followed by perfusion of Ringer's solution containing 2 mM CaCl2. The cycle was repeated once with final addition of Ringer's solution supplemented with 2 μM LaCl3 to block Ca^2+ flux. Images were acquired using a Zeiss Axiovert S200 epifluorescence microscope and OpenLab imaging analysis software (Improvision). The fluorescence data (F340 nm/F380 nm) were collected every 4 s and analyzed as described (Oh-hora, M., et al., (2008), supra; Feske, S., et al., Nature 441, 179-185 (2006)). In each experiment, for each experimental condition, 50-100 GFP-positive CD4+ T cells were analyzed.

[1] = target: endogenous CRAC channels (ORAI1) of STIM1-/- murine T cells (mouse) (UniProt Q8BWG9); test: cell-based or functional assay
[2] = tested on: P pastoris cells that were not engineered to express ORAI3
Description: (§1) Human ORAI3 was expressed in P. pastoris as described below. Then ^45Ca^2+ uptake was measured in a suspension of P. pastoris cells expressing ORAI3, after addition of 2-aminoethoxydiphenyl borate (2-APB), a compound known to activate ORAI3 expressed in mammalian cells.
• Streaked out Pichia glycerol stock on RDB-plate • Grew 2-5 days at 30° C. (until colonies are large enough to easily remove) Seeded 5 mL MGY medium with 1 colony • Grew 2 days in 50 mL Falcon tube (cap partially unscrewed but taped on to allow aeration), 250 rpm, 30° C. • Seeded 50 mL MGY with the 5 mL culture (use a yeast-specific baffled flask; if scaled up, the volume of the culture was 1/10th the volume of the flask) • Grew o/n, 30° C., 250 rpm • At OD ˜2-3, spun down, checked OD and resuspended in MMY at an approximate OD of 6 (i.e., 6×5E7 cells/mL) • Grew 4 h at 28.5° C., 250 rpm, 28.5° C., with the top of the flask covered in gauze (not foil or a lid—a lot of aeration needed for induction. The temperature was under 30° C.) • Measured OD • Washed 3×25 mL in Solution A • Resuspended in Solution A for a final OD of 2 (1×10^8 cells/mL) […]

human ORAI3 = human ORAI3 (Homo sapiens, UniProt Q9BRQ5); details: for ^45Ca^2+ uptake (cpm): 75 μM 2-APB
Description: as §1
Individual colonies were picked, and ORAI3 protein expression was induced by growth for eight hours in MMY medium (containing 0.5% methanol), whose formulation is given below. Cells were collected by centrifugation, and disrupted by vortexing in an Eppendorf tube with 0.5 mm glass beads. Beads, unbroken cells, and debris were removed by centrifugation at 5000 rpm in a benchtop centrifuge. The supernatant from that centrifugation was centrifuged at 100,000×g to pellet cell membranes. Cell membranes were resuspended, protein concentrations determined by Lowry or Bradford assay, and an equal amount of protein from each sample subjected to SDS-polyacrylamide gel electrophoresis and western blotting. The relative levels of Myc-ORAI3 expressed by individual colonies were compared by western blotting with antibody to the Myc tag. Colonies expressing relatively high levels of ORAI3 protein were used for the ^45Ca^2+ uptake assay.
• Streaked out Pichia glycerol stock on RDB-plate • Grew 2-5 days at 30° C. (until colonies are large enough to easily remove) Seeded 5 mL MGY medium with 1 colony • Grew 2 days in 50 mL Falcon tube (cap partially unscrewed but taped on to allow aeration), 250 rpm, 30° C. • Seeded 50 mL MGY with the 5 mL culture (use a yeast-specific baffled flask; if scaled up, the volume of the culture was 1/10th the volume of the flask) • Grew o/n, 30° C., 250 rpm • At OD ˜2-3, spun down, checked OD and resuspended in MMY at an approximate OD of 6 (i.e., 6×5E7 cells/mL) • Grew 4 h at 28.5° C., 250 rpm, 28.5° C., with the top of the flask covered in gauze (not foil or a lid—a lot of aeration needed for induction. The temperature was under 30° C.) • Measured OD • Washed 3×25 mL in Solution A • Resuspended in Solution A for a final OD of 2 (1×10^8 cells/mL)
• (Prepared everything else: 1 μCi/μL ^45CaCl2, 1 mL Solution S aliquots in tubes that can hold at least 2 mL, tips, etc.) • Spun sample (either 1 mL or the multiple-mL timepoint aliquot) down at 2000×g and resuspended in an equal volume of Solution C • (where applicable, added 2-APB or other things such as Solution S or lanthanum here. 75 μM 2-APB with Orai3.) • Added 1 μCi ^45CaCl2/Ml • Incubated as appropriate • When timepoint was taken, 1 mL sample (gently pipetted up and down, since Pichia settle) and added to 1 mL Solution S • Collected all samples • (This was repeated for each sample.) Presoaked 2.5 cm Whatman GF/F filter in place on the filter apparatus with 1 mL Solution S • Added the 2 mL sample/Solution S mix to the column • Turned on the vacuum and wash 3×15 mL with Solution W • Let filter dry under vacuum & removed to scintillation vial • Placed filter flat on the bottom of the vial, yeast-side up • Carefully added scintillation fluid • Counted in scintillation counter (^45Ca settings, if possible: window is 0-750, quench curve calibrations)

ORAI1 (E106Q) = ORAI1 (E106Q) (Homo sapiens, UniProt Q96D31, E106Q); test: Tb3+ luminescence resonance energy transfer, lanthanide binding to ORAI1; design: Human ORAI1 (65-301) with an N-terminal FLAG tag was subcloned into the pPIC3.5K vector; made in house; host or cells: Pichia pastoris (membranes)
Description: Tb3+ luminescence resonance energy transfer (Tb3+-LRET) experiments were performed on a FluoroLog®-3 spectrofluorometer (HORIBA Scientific) with a 1-cm lengthpath cuvette at ambient temperature. Emission spectra were collected from 500 to 600 nm with the excitation set at 282 nm, or at 295 nm to minimize the contribution from tyrosine. The slit widths for excitation and emission were set at 4 nm and 8 nm, respectively. A glass filter with cutoff of ˜320 nm was used to circumvent light scattering. […] Spectra from membranes lacking ORAI1, with the same total membrane protein content, served as negative control.
In each case, a scan of luminescence emission from membrane suspension alone was obtained, then Tb3+ was added into the cuvette and a second scan was performed (FIG. 12). Protein content of the two samples was the same. The presence of equivalent amounts of membrane microsomes was also evidenced by identical light scattering in the two cases prior to addition of Tb3+. Characteristic Tb3+ emission peaks at 547 nm and 589 nm were prominent in the ORAI sample, attributable to energy transfer from one or more of the native tryptophan residues of the protein.

Chain of ORAI1 (E106Q) (Q96D31 65-301 E106Q): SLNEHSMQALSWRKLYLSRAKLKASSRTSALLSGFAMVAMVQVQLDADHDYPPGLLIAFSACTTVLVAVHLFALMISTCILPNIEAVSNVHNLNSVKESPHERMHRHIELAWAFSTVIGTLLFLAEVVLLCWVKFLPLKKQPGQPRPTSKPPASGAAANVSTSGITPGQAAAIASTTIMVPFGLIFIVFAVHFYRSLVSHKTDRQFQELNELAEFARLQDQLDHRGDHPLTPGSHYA
Chain of endogenous CRAC channels (ORAI1) of STIM1-/- murine T cells (mouse) (Q8BWG9 whole entry): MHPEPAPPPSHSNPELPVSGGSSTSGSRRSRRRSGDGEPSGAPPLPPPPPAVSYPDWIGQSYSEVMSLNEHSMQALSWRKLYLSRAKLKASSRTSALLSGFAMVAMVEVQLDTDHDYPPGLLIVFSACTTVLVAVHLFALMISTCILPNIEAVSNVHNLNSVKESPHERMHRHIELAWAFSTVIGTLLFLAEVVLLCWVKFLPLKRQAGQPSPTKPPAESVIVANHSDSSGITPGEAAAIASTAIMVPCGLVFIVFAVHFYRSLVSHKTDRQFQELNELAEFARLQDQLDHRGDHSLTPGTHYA

[Cl][La]([Cl])[Cl] [La^3+, LaCl3, reference compound]
cytoplasmic [Ca^2+] upon exposure to La^3+ (STIM1−/− T cells; 2 μM LaCl3, continuing presence of external Ca^2+): rapid decline

STIM1 (233-600): truncated mouse STIM1 cytoplasmic fragment, residues 233-600
maximum levels of cytoplasmic Ca^2+ (STIM1−/− T cells; compared with STIM1^CT): somewhat less than with STIM1^CT | rate of rise of cytoplasmic Ca^2+ (STIM1−/− T cells; compared with STIM1^CT): nearly comparable to the rate with STIM 1^CT | constitutive Ca^2+ influx (STIM1−/− T cells; retroviral expression, Fura-2): activated a prominent constitutive Ca^2+ influx

Myc-tagged STIM1^CT (mouse STIM1 233-685) expressed by retrovirus in STIM1-/- T cells (from UniProt P70302 233-685)
steepest rise of cytoplasmic [Ca^2+] (Fura-2, single cells) [1]: 15 nM/s

NCCOB(c1ccccc1)c1ccccc1 [2-APB, 2-aminoethoxydiphenyl borate]
effect on ^45Ca^2+ uptake [2]: did not have this effect | rate and extent of ^45Ca^2+ uptake (human ORAI3; 75 μM 2-APB versus control suspensions without 2-APB): increased | ^45Ca^2+ uptake (cpm) (human ORAI3; 0.5 min): 2729.9 cpm | ^45Ca^2+ uptake (cpm) (human ORAI3; 1 min): 3137.3 cpm | ^45Ca^2+ uptake (cpm) (human ORAI3; 2 min): 4662.1 cpm | ^45Ca^2+ uptake (cpm) (human ORAI3; 4 min): 6019.2 cpm | ^45Ca^2+ uptake (cpm) (human ORAI3; ~0.25 min): 1913.5 cpm

[Tb+3] [Tb3+]
Tb3+ emission peaks at 547 nm and 589 nm (ORAI1 (E106Q); Pichia membranes containing ORAI1 (E106Q), Tb3+ 10-50 μM): prominent | Tb3+-LRET signal (ORAI1 (E106Q); solubilized ORAI1): specific Tb3+-LRET signal
